1 substance from US20200237871A1, “METHODS FOR MITIGATING LIVER INJURY AND PROMOTING LIVER HYPERTROPHY, REGENERATION AND CELL ENGRAFTMENT IN CONJUNCTION WITH RADIATION AND/OR RADIOMIMETIC TREATMENTS” (Janssen Pharmaceutica NV, priority 2019, published 2020) can be followed below.

“Also recorded” adds a separate entry of the source.

The assay relates to mice with normal or cirrhotic (CCl4) livers. In words: SPECT-CT residual perfusion defect volume after hepatic irradiation (Example 2). The assay is classed as in vivo, mouse. As to the method:
8-12-week-old male and female Di-peptyl peptidase IV (DPPIV) −/− knockout mice and 8-12-week-old male and female C57Bl6 mice were used in this study. Animals were weighed in the beginning of the experiment and before tissue collection. All animals were housed in the Institute for Animal Studies at Albert Einstein College of medicine and fed regular rodent chow. All experiments were performed to according to protocols approved by Institutional Animal Care and Use Committee at Albert Einstein College of Medicine. Animals were made cirrhotic using CCl4 administration (intraperitoneal [IP] injections twice a week for at least 11 weeks).
Image-guided external beam irradiation was performed using a small animal radiation research platform (SARRP, Xstrahl Inc., Suwanee, Ga.). Mice were given gastrografin contrast through gavage to improve visualization of the gastrointestinal (GI) tract. After approximately 2 minutes, mice were positioned on a tubular couch and anesthetized with ˜2% Isofluorane (Isothesia, USP) in 2 L/min pure oxygen. A cone-beam computed tomography (CBCT) scan was acquired and a treatment plan irradiating the median lobe and right lobe was generated using the MuriPlan software. To minimize toxicity, in contrast to Example 1 where two parallel opposed fields were used, irradiation was performed using 2 arcs per liver target with equal dosing weights (likely resulting in more collateral lower dose radiation exposure compared to Example 1). Within the targeted lobes, the position of the isocenter was chosen to minimize irradiation of the GI tract, spine, and heart (the maximum dose to these organs was kept below 10 Gy). Targets were irradiated with 50 Gy X-rays at 220 kVp energy and 13 mA tube current (dose rate of 2.4-2.5 Gy/min) using a 1 mm copper filter for beam hardening. (Brodin et al., The Radiation Safety Journal, 2015, 109 Supp 3, S190).
TPOm was diluted in sterile PBS to a 10 mg/ml stock. The stock was stored at −20° C. and allowed to come to room temperature prior to administration. TPOm was administered as a single dose (300 μg/kg) via subcutaneous injection 10 minutes after the transplant procedure.
LSEC transplantation is a novel technique that requires a strong growth stimulus for effective liver repopulation (Guha et al., Hepatology, 2002, 36:354-62; Laconi et al., Am. J. Pathol., 1998, 153:319-29). Following isolation of LSECs, 500×10^5 LSECs are transplanted via intrasplenic injection into healthy adult mice anesthetized with Isoflurane (Isothesia, USP) 24 hrs post HIR. […]
SPECT with a radiotracer to assess the progression of RILD in-vivo has been developed and utilized in this work. […] The CT was set on medium resolution and was measured by a dosimeter and read by a third-party company, at an exposure of 5 mRem/hr for each CT scan/animal. […]

As to “methoxypolyethyleneglycol20000-propionyl-L-Isoleucyl-L-Glutamyl-Glycyl-L-Prolyl-L-Threonyl-L-Leucyl-L-Arginyl-L-Glutaminyl-L-2-Naphthylalanyl-L-Leucyl-L-Alanyl-L-Alanyl-L-Arginyl-Sarcosyl-Ne-(methoxypolyethyleneglycol20000-propionyl-L-Isoleucyl-L-Glutamyl-Glycyl-L-Prolyl-L-Threonyl-L-Leucyl-L-Arginyl-L-Glutaminyl-L-2-Naphthyl alanyl-L-Leucyl-L-Alanyl-L-Alanyl-L-Arginyl-Sarcosyl-)-Lysinamide [RWJ-800088]”, the “perfusion defect of irradiated liver tissue (SPECT-CT), in words” value (LSEC transplant followed by TPOm injection post irradiation) is recorded as “perfusion recovery; also recorded: significant mitigation of defect formation”. For the same substance, under “cirrhotic livers, RWJ-800088 and LSEC transplantation 24-hours post irradiation, listed as TPOm”, the “residual defect 2 months post radiation, cirrhotic liver” value was “significantly reduced”. Besides, where the note is “normal livers, RWJ-800088 2 or 24 hours prior to irradiation, without LSEC transplant, 2 months post HIR, listed as TPOm”, the “mean residual defect volume in the irradiated region” value is on record as “significant reduction in defect volume”. For the same substance, where the note is “normal livers, RWJ-800088 and LSEC transplantation 24 hours after irradiation, 2 months post HIR, p=0.03, HIR only 71.4%”, the “residual defect volume in the irradiated area” value was 18.2%.
